From US20250222120A1, “SYNTHESIS OF NOVEL SMALL MOLECULE CARM1 DEGRADERS, COMPOUNDS FORMED THEREBY, AND PHARMACEUTICAL COMPOSITIONS CONTAINING THEM” (Wisconsin Alumni Research Foundation, priority 2024, published 2025) come the findings set out here.

In test [1] the test system is BAF155 me2a. The test is described as follows: BAF155 me2a level in BT474 cells, western blot. Format: cell-based. The conditions noted are these: 0.5 μM, after 48 h. From the text:
FIGS. 7A-7F. […] Cell lysates were collected and CARM1, methyl-BAF155, total BAF155, methyl-PABP1, and total PABP1 levels were detected by Western blot. […] Cell lysates were collected and CARM1, methyl-BAF155, total BAF155 levels were detected by Western blot. […] Cell proliferation rate normalized to day 0 was plotted. […] Migrated cells were stained with 1% crystal violet and the percentage of migrated cells were plotted. Data mean±s.d. ***. P≤0.001.
Western Blot Assay. Cells were harvested and washed with Dulbecco's phosphate-buffered saline (PBS), then lysed with 1×RIPA lysis buffer (50 mM Tris pH 7.5, 150 mM NaCl, 1% NP-40, 0.5% sodium deoxycholate, and 0.1% sodium dodecyl sulfate) supplemented with 1 mM phenylmethylsulfonyl fluoride, 10 μg/mL aprotinin, 1 μM leupeptin, and 10 μg/mL pepstatin on ice for 20 min. The supernatant was collected after spinning down at 15000 RPM at 4 degrees Celsius for 10 min. The concentration of whole lysates was quantified using a Bradford assay. 50-75 μg of cell lysates was boiled in 4× Laemmli Loading Dye and boiled at 100 degrees Celsius for 10 min. 25 μg were run in 8% SDS-PAGE gels and transferred to nitrocellulose membranes. Blots were blocked in 5% skim milk in PBST [PBS and 0.1% Tween 20] for 45 min, then incubated with primary antibodies at 4 degrees Celsius overnight. […]
(Immunoblotting shows a protein as a band on a membrane.)

The test system of test [2] is MCF7 cells. Put plainly: Cell proliferation assay, MCF7 cells. The test is classed as cell-based, human. As to conditions: 0.5 μM.
Test [3] concerns MDA-MB-231 cells. The test is described as follows: Transwell migration assay, MDA-MB-231 cells. Format: cell-based. The protocol:
Transwell Migration Assay. Cells were harvested and washed in serum-free DMEM. The wells of a 24-well plate were filled with 800 μL of DMEM with 10% FBS. Transwell inserts with […] pore size were then added to the wells with DMEM. Cells were resuspended in serum-free DMEM, then 1×10^5 cells in 200 μL were added to the upper chambers. Drug treatments were added to the lower chambers, then incubated for 20 h at 37° C. The cells on the upper surface were removed with cotton swabs. Migratory cells were fixed in 3.7% formaldehyde at room temperature, followed by 100% methanol at −20° C. Fixed cells were stained with 1% crystal violet in 20% methanol for 30 min. The migration area was quantified from five independent fields of view of the lower surface of the membrane under a microscope.

On to `CNCCN1CCC(c2cc(CN(C)C(=O)c3cccc(Oc4ccc(OCC(=O)N5CCC(CN6CCC(CN7CCN(CC(=O)N[C@H](C(=O)N8C[C@H](O)C[C@H]8C(=O)N[C@@H](C)c8ccc(-c9scnc9C)cc8)C(C)(C)C)CC7)CC6)CC5)cc4)c3)ccn2)CC1` [Compound 3b, (2S,4R)-1-((S)-3,3-dimethyl-2-(2-(4-((1-((1-(2-(4-(3-(methyl((2-(1-(2-(methylamino)ethyl)piperidin-4-yl)pyridin-4-yl)methyl)carbamoyl)phenoxy)phenoxy)acetyl)piperidin-4-yl)methyl)piperidin-4-yl)methyl)piperazin-1-yl)acetamido)butanoyl)-4-hydroxy-N—((S)-1-(4-(4-methylthiazol-5-yl)phenyl)ethyl)pyrrolidine-2-carboxamide], for which the “BAF155 me2a level” value in test [1] is “decrease of BAF155 me2a level was observed”. For the same compound, in test [2], the Cell proliferation entry was “not to inhibit cell proliferation”. The “Dose lower than the corresponding inhibitor for the same anti-migratory effects” value in test [3] (0.5 μM 3b versus 10 μM TP-064) is 20 fold. Moreover, the Cell migration result in test [3] (0.5 μM, transwell, 20 h) is reported as “inhibited cell migration at a similar level”.
